Test results: patent US8912146B2, “Derivatives of APF and methods of use” (University of Maryland, Baltimore, priority 2008, dated 2014)
*1 amine or outer side, *2 acyl side, *3 side chain or, on linkers, in order; H or OH if unused. Where a SMILES comes first, the peptide text is derived from it. [ ]: non-standard residue; d: D form. The star is where a group is joined. ξ: configuration not given here. X1 = CC(=O)NC1C(O[C@@H]2OC(CO)[C@H](O)C(O)C2O)[C@@H](O)C(CO)O[C@@H]1*; X2 = CC(C)(C)OC1C[C@@H](C(=O)[*:2])N([*:1])C1; X4 = CC1(C)OC[C@@H](C(=O)[*:2])N1[*:1]; X3 = O=C([C@@H]1CC(O)CN1[*:1])[*:2]; Thr(3ξ) = CC(O)[C@H](N)C(=O)O; ξY = NC(Cc1ccc(O)cc1)C(=O)O; NMeA = CN[C@@H](C)C(=O)O; ξL = CC(C)CC(N)C(=O)O; ξV = CC(C)C(N)C(=O)O; ξA = CC(N)C(=O)O

Tested on: primary normal human bladder epithelial cells
Test: 3H-thymidine incorporation (antiproliferative activity) in primary normal bladder epithelial cells
Type: cell-based
Details: for % of activity: relative to 1 (as-APF) run on the same plate, from IC50, inactive = no significant activity at <25 μM
Description: Cell Culture. Cystoscopy was performed under general anesthesia, and 4-mm^2 pieces of transitional epithelium with submucosal bladder tissue were obtained for the growth of primary bladder epithelial cells, as previously described (Keay et al., 1996; 2004). Primary normal bladder epithelial cells were propagated in DMEM-F12 (Media-Tech, Herndon Va.) with 10% heat-inactivated fetal bovine serum (FBS), 1% antibiotic/antimycotic solution, 1% L-glutamine, 0.25 units/mL insulin (all from Sigma, St. Louis, Mo.), and 5 ng/mL hEGF (R&D Systems, Minneapolis, Minn.) at 37° C. in a 5% CO2 atmosphere and characterized by binding of AE-1/AE-3 pancytokeratin antibodies (Signet, Dedham, Mass.).
^3H-Thymidine Incorporation. Cell proliferation was measured by ^3H-thymidine incorporation into explanted normal human bladder epithelial cells, plating 1.5×10^4 cells/well onto a 96 well cell culture plate (VWR 29442-054), in 150 ul/well MEM containing 10% heat inactivated FBS, 1% antibiotic/antimycotic solution, and 1% L-glutamine (all from Sigma), resulting in a doubling time of 48-72 hours, as previously described (Keay et al., 1996; 2004). Each purified lyophilized synthetic APF congener was resuspended in acetonitrile/distilled water (1:1), and applied to the cells in serum-free MEM (containing only L-glutamine and antibiotics/antimycotics); cell controls received acetonitrile/distilled water diluted in serum-free MEM alone. Cells were then incubated at 37° C. in a 5% CO2 atmosphere for 48 hours. The cell contents harvested and methanol-fixed onto glass fiber filter paper, and the amount of radioactivity incorporated determined. Significant inhibition of ^3H-thymidine incorporation was defined as a mean decrease in counts per minute of greater than 2 standard deviations from the mean of control cells for each plate. Inhibition of cell proliferation was determined from a semi-log plot of dose-response for each APF derivative; IC50 was determined as the concentration of each derivative that caused a mean 50% inhibition of thymidine incorporation as compared to the mean of untreated cell controls.
Statistical Analysis. The thymidine incorporation (APF biological activity) assay was performed in triplicate on at least two separate runs, with 1 run simultaneously in triplicate on the same plate. The significance of the difference between mean values for each congener vs. mean values for compound 1 was determined by an analysis of variance.

CC(=O)NC1C(O[C@@H]2OC(CO)[C@H](O)C(O)C2O)[C@@H](O)C(CO)O[C@@H]1OC[C@H](N)C(=O)NC(CC(C)C)C(=O)N1CCC[C@H]1C(=O)NC(C)C(=O)N[C@@H](C)C(=O)NC(C(=O)N[C@H](C(=O)NC(C(=O)N[C@@H](C)C(=O)O)C(C)C)C(C)C)C(C)C (stereo partly shown) [Derivative 2] (H-S(X1)[ξL]P[ξA]A[ξV]V[ξV]A-OH)
antiproliferative activity compared with as-APF (1), in words: two orders of magnitude loss of potency | % of activity: 1%

CC(=O)NC1C(O[C@@H]2OC(CO)[C@H](O)C(O)C2O)[C@@H](O)C(CO)O[C@@H]1OC[C@H](N)C(=O)NC(C(=O)N1CCC[C@H]1C(=O)NC(C)C(=O)N[C@@H](C)C(=O)NC(C(=O)N[C@H](C(=O)NC(C(=O)N[C@@H](C)C(=O)O)C(C)C)C(C)C)C(C)C)C(C)C (stereo partly shown) [Derivative 3] (H-S(X1)[ξV]P[ξA]A[ξV]V[ξV]A-OH)
antiproliferative activity compared with as-APF (1), in words: 4 orders of magnitude | % of activity: 0.01%

CC(=O)NC1C(O[C@@H]2OC(CO)[C@H](O)C(O)C2O)[C@@H](O)C(CO)O[C@@H]1OC(C)[C@H](N)C(=O)NC(CC(C)C)C(=O)N1CCC[C@H]1C(=O)NC(C)C(=O)N[C@@H](C)C(=O)NC(C(=O)N[C@H](C(=O)NC(C(=O)N[C@@H](C)C(=O)O)C(C)C)C(C)C)C(C)C (stereo partly shown) [Derivative 4] (H-[Thr(3ξ)](X1)[ξL]P[ξA]A[ξV]V[ξV]A-OH)
antiproliferative activity compared with as-APF (1), in words: inactivation | % of activity: inactive

CC(=O)NC1C(O[C@@H]2OC(CO)[C@H](O)C(O)C2O)[C@@H](O)C(CO)O[C@@H]1OC(C)[C@H](NC(=O)C(N)Cc1ccc(O)cc1)C(=O)NC(CC(C)C)C(=O)N1CCC[C@H]1C(=O)NC(C)C(=O)N[C@@H](C)C(=O)NC(C(=O)N[C@H](C(=O)NC(C(=O)N[C@@H](C)C(=O)O)C(C)C)C(C)C)C(C)C (stereo partly shown) [Derivative 6] (H-[ξY][Thr(3ξ)](X1)[ξL]P[ξA]A[ξV]V[ξV]A-OH)
antiproliferative activity compared with as-APF (1), in words: approximately 2 orders of magnitude loss of potency | % of activity: 1%

CC(=O)NC1C(O[C@@H]2OC(CO)[C@H](O)C(O)C2O)[C@@H](O)C(CO)O[C@@H]1OC(C)[C@H](N)C(=O)NC(Cc1ccc(O)cc1)C(=O)N1CCC[C@H]1C(=O)NC(C)C(=O)N[C@@H](C)C(=O)NC(C(=O)N[C@H](C(=O)NC(C(=O)N[C@@H](C)C(=O)O)C(C)C)C(C)C)C(C)C (stereo partly shown) [Derivative 7] (H-[Thr(3ξ)](X1)[ξY]P[ξA]A[ξV]V[ξV]A-OH)
antiproliferative activity compared with as-APF (1), in words: complete inactivation | % of activity: inactive

CC(=O)NC1C(O[C@@H]2OC(CO)[C@H](O)C(O)C2O)[C@@H](O)C(CO)O[C@@H]1OC(C)[C@H](N)C(=O)NC(C(=O)N1[C@H](C(=O)NC(C)C(=O)N[C@@H](C)C(=O)NC(C(=O)N[C@H](C(=O)NC(C(=O)N[C@@H](C)C(=O)O)C(C)C)C(C)C)C(C)C)COC1(C)C)C(C)C (stereo partly shown) [Derivative 9] (H-[Thr(3ξ)](X1)[ξV][X4][ξA]A[ξV]V[ξV]A-OH)
antiproliferative activity compared with as-APF (1), in words: completely abolished activity | % of activity: inactive

CC(=O)NC1C(O[C@@H]2OC(CO)[C@H](O)C(O)C2O)[C@@H](O)C(CO)O[C@@H]1OC(C)[C@H](N)C(=O)NC(C(=O)N[C@@H](C)C(=O)NC(C)C(=O)N[C@@H](C)C(=O)NC(C(=O)N[C@H](C(=O)NC(C(=O)N[C@@H](C)C(=O)O)C(C)C)C(C)C)C(C)C)C(C)C (stereo partly shown) [Derivative 11] (H-[Thr(3ξ)](X1)[ξV]A[ξA]A[ξV]V[ξV]A-OH)
antiproliferative activity compared with as-APF (1), in words: 2-3 orders of magnitude decrease | % of activity: 0.3%

CC(=O)NC1C(O[C@@H]2OC(CO)[C@H](O)C(O)C2O)[C@@H](O)C(CO)O[C@@H]1OC(C)[C@H](N)C(=O)NC(C(=O)N1CC(O)C[C@H]1C(=O)NC(C)C(=O)N[C@@H](C)C(=O)NC(C(=O)N[C@H](C(=O)NC(C(=O)N[C@@H](C)C(=O)O)C(C)C)C(C)C)C(C)C)C(C)C (stereo partly shown) [Derivative 12] (H-[Thr(3ξ)](X1)[ξV][X3][ξA]A[ξV]V[ξV]A-OH)
antiproliferative activity compared with as-APF (1), in words: 2-3 orders of magnitude decrease | % of activity: 0.3%

CC(=O)NC1C(O[C@@H]2OC(CO)[C@H](O)C(O)C2O)[C@@H](O)C(CO)O[C@@H]1OC(C)[C@H](N)C(=O)NC(C(=O)N1CC(OC(C)(C)C)C[C@H]1C(=O)NC(C)C(=O)N[C@@H](C)C(=O)NC(C(=O)N[C@H](C(=O)NC(C(=O)N[C@@H](C)C(=O)O)C(C)C)C(C)C)C(C)C)C(C)C (stereo partly shown) [Derivative 13] (H-[Thr(3ξ)](X1)[ξV][X2][ξA]A[ξV]V[ξV]A-OH)
antiproliferative activity compared with as-APF (1), in words: 2-3 orders of magnitude decrease | % of activity: 0.2%

CC(=O)NC1C(O[C@@H]2OC(CO)[C@H](O)C(O)C2O)[C@@H](O)C(CO)O[C@@H]1OC(C)[C@H](N)C(=O)NC(C(=O)N(C)[C@@H](C)C(=O)NC(C)C(=O)N[C@@H](C)C(=O)NC(C(=O)N[C@H](C(=O)NC(C(=O)N[C@@H](C)C(=O)O)C(C)C)C(C)C)C(C)C)C(C)C (stereo partly shown) [Derivative 14] (H-[Thr(3ξ)](X1)[ξV][NMeA][ξA]A[ξV]V[ξV]A-OH)
antiproliferative activity compared with as-APF (1), in words: 4 orders of magnitude decrease | % of activity: 0.05%

CC(=O)NC1C(O[C@@H]2OC(CO)[C@H](O)C(O)C2O)[C@@H](O)C(CO)O[C@@H]1OC(C)[C@H](N)C(=O)NC(C(=O)N1CCC[C@H]1C(=O)NCCCCCCCCCCCC(=O)O)C(C)C (stereo partly shown) [Derivative 16]
antiproliferative activity compared with as-APF (1), in words: completely inactive | % of activity: inactive

CC(=O)NC1C(O[C@@H]2OC(CO)[C@H](O)C(O)C2O)[C@@H](O)C(CO)O[C@@H]1OC(C)[C@H](N)C(=O)NC(C(=O)N1CCC[C@H]1C(=O)NC(C)C(=O)N[C@@H](C)C(=O)O)C(C)C (stereo partly shown) [Derivative 17] (H-[Thr(3ξ)](X1)[ξV]P[ξA]A-OH)
antiproliferative activity compared with as-APF (1), in words: completely inactive | % of activity: inactive

CC(=O)NC1C(O[C@@H]2OC(CO)[C@H](O)C(O)C2O)[C@@H](O)C(CO)O[C@@H]1OC(C)[C@H](N)C(=O)NC(C(=O)N1CCC[C@H]1C(=O)NC(C)C(=O)N[C@@H](C)C(=O)NC(C(=O)N[C@H](C(=O)NC(C(=O)O)C(C)C)C(C)C)C(C)C)C(C)C (stereo partly shown) [Derivative 18, Galβ1-3GalNAcα-O-TVPAAVVV] (H-[Thr(3ξ)](X1)[ξV]P[ξA]A[ξV]V[ξV]-OH)
antiproliferative activity compared with as-APF (1), in words: full activity | activity (as-APF8 analogues Galβ1-3GalNAcα-O-TVPAA-R-R-R, Table 7): 100% | % of activity: 100%

CC(=O)NC1C(O[C@@H]2OC(CO)[C@H](O)C(O)C2O)[C@@H](O)C(CO)O[C@@H]1OC(C)[C@H](N)C(=O)NC(C(=O)N1CCC[C@H]1C(=O)NC(C)C(=O)N[C@@H](C)C(=O)NC(C(=O)N[C@H](C(=O)O)C(C)C)C(C)C)C(C)C (stereo partly shown) [Derivative 19, Galβ1-3GalNAcα-O-TVPAAVV] (H-[Thr(3ξ)](X1)[ξV]P[ξA]A[ξV]V-OH)
antiproliferative activity compared with as-APF (1), in words: completely inactive | % of activity: inactive

CC(=O)NC1C(O[C@@H]2OC(CO)[C@H](O)C(O)C2O)[C@@H](O)C(CO)O[C@@H]1OC(C)[C@H](N)C(=O)NC(C(=O)N1CCC[C@H]1C(=O)NC(C)C(=O)N[C@@H](C)C(=O)NC(C(=O)N[C@H](C(=O)NC(C)C(=O)N[C@H](C(=O)O)C(C)C)C(C)C)C(C)C)C(C)C (stereo partly shown) [Derivative 20] (H-[Thr(3ξ)](X1)[ξV]P[ξA]A[ξV]V[ξA]V-OH)
antiproliferative activity compared with as-APF (1), in words: loss of most or all biological activity | % of activity: inactive

CC(=O)NC1C(O[C@@H]2OC(CO)[C@H](O)C(O)C2O)[C@@H](O)C(CO)O[C@@H]1OC(C)[C@H](N)C(=O)NC(C(=O)N1CCC[C@H]1C(=O)NC(C)C(=O)N[C@@H](C)C(=O)NC(C(=O)N[C@H](C(=O)NC(C(=O)N[C@@H](CC(C)C)C(=O)O)C(C)C)C(C)C)C(C)C)C(C)C (stereo partly drawn) [Derivative 21] (H-[Thr(3ξ)](X1)[ξV]P[ξA]A[ξV]V[ξV]L-OH)
antiproliferative activity compared with as-APF (1), in words: loss of most or all biological activity | % of activity: 0.01%

CC(=O)NC1C(O[C@@H]2OC(CO)[C@H](O)C(O)C2O)[C@@H](O)C(CO)O[C@@H]1OC(C)[C@H](N)C(=O)NC(C(=O)N1CCC[C@H]1C(=O)NC(C)C(=O)N[C@H](C(=O)NC(C(=O)N[C@H](C(=O)NC(C(=O)N[C@@H](C)C(=O)O)C(C)C)C(C)C)C(C)C)C(C)C)C(C)C (stereo partly shown) [Derivative 22] (H-[Thr(3ξ)](X1)[ξV]P[ξA]V[ξV]V[ξV]A-OH)
antiproliferative activity compared with as-APF (1), in words: loss of most or all biological activity | % of activity: inactive

CC(=O)NC1C(O[C@@H]2OC(CO)[C@H](O)C(O)C2O)[C@@H](O)C(CO)O[C@@H]1OC(C)[C@H](N)C(=O)NC(C(=O)N1CCC[C@H]1C(=O)NC(C)C(=O)N[C@@H](CO)C(=O)NC(C(=O)N[C@H](C(=O)NC(C(=O)N[C@@H](CO)C(=O)O)C(C)C)C(C)C)C(C)C)C(C)C (stereo partly shown) [Derivative 23] (H-[Thr(3ξ)](X1)[ξV]P[ξA]S[ξV]V[ξV]S-OH)
antiproliferative activity compared with as-APF (1), in words: partial inactivation | % of activity: 0.2%
